Reference: ChEMBL document CHEMBL3881525, “Analogs of dehydrophenylahistins and their therapeutic use” (2007)
In brackets after ≈: the same amount, converted by molar mass. Activity calls are given as the source filed them. No cut-off for these calls is given here.

Legend:
[1] = Cytotoxicity against human HT-29 cells assessed as reduction in cell viability measured after 48 hrs by resazurin dye-based fluorometric analysis; assay type: functional; details: Homo sapiens, HT-29, 48 h
[2] = Cytotoxicity against human PC3 cells assessed as reduction in cell viability measured after 48 hrs by resazurin dye-based fluorometric analysis; assay type: functional; details: PC-3, 48 h
HeLa = test: Effect on cell cycle progression in human HeLa cells assessed as reduction in 2N cells at 100 nM; assay type: functional, cell-based
[3] = Drug metabolism assessed as human hepatic cytochrome P450-mediated hydroxylated metabolite P3 and P5 formation; assay type: ADME
[4] = Cytotoxicity against human MDA-MB-231 cells assessed as reduction in cell viability measured after 48 hrs by resazurin dye-based fluorometric analysis; assay type: functional; details: MDA-MB-231, 48 h
[5] = Cytotoxicity against human OVCAR3 cells assessed as reduction in cell viability measured after 48 hrs by resazurin dye-based fluorometric analysis; assay type: functional; details: OVCAR-3, 48 h
[6] = Cytotoxicity against human CCD-27Sk cells assessed as reduction in cell viability measured after 48 hrs by resazurin dye-based fluorometric analysis
[7] = Antiproliferative activity against human mitoxantrone-sensitive HL60 cells; assay type: functional, cell-based; details: HL-60
[8] = Antiproliferative activity against human mitoxantrone-resistant HL60/MX2 cells; assay type: functional, cell-based; details: HL-60
Tubulin (Homo sapiens) [9] = molecular target: T1, Tubulin (Homo sapiens) (UniProt P68371+Q9H4B7+P0DPH7+P68366+Q13509+Q71U36+P04350+Q3ZCM7+P07437+P68363+Q9BQE3+Q6PEY2+Q13885+Q9BVA1+Q9BUF5); test: Induction of microtubule depolymerization in human CCD-27Sk cells at 2 uM measured after 30 mins; assay type: cell-based
Tubulin (Homo sapiens) [10] = molecular target: T1, Tubulin (Homo sapiens); test: Induction of microtubule depolymerization in human CCD-27Sk cells assessed as cell membrane blebbing at 2 uM measured after 30 mins; assay type: cell-based
HUVEC [11] = test: Induction of apoptosis in HUVEC assessed as cell membrane blebbing; assay type: functional, cell-based; details: Homo sapiens
HUVEC [12] = test: Induction of apoptosis in HUVEC assessed as disruption of nuclei; assay type: functional, cell-based; details: Homo sapiens
[13] = Antitumor activity against human MCF7 cells xenografted in nude mouse assessed as tumor growth inhibition at 7.5 mg/kg, ip qd administered every third day for 5 days in presence of CPT-11 relative to control; assay type: functional; details: 120 h, read-out: TGI
[14] = Antitumor activity against human DU145 cells xenografted in nude mouse assessed as tumor growth inhibition at 7.5 mg/kg, iv administered every third day for 5 days measured on day 28 relative to control; assay type: functional; details: DU-145, iv, read-out: TGI
[15] = Antifungal activity against Candida glabrata measured after 48 hrs by broth dilution method; assay type: functional; details: Nakaseomyces glabratus
Trichophyton rubrum = test: Fungicidal activity against Trichophyton rubrum isolate 2 measured after 48 hrs by broth dilution method; assay type: functional; details: isolate 2, 48 h
[16] = Antifungal activity against Trichophyton mentagrophytes isolate 1 measured after 48 hrs by broth dilution method; assay type: functional
Mus musculus = test: Antivascular activity against mouse N202 tumor spheroids expressing H2B-GFP allografted in mouse assessed as inhibition of tumor-induced central vasculature at 10 mg/kg, iv administered on day 12 as infusion for 5 mins measured on day 15 by fluorescence video microscopy; assay type: functional, organism-based
[17] = Toxicity in mouse allografted with mouse N202 tumor spheroids expressing H2B-GFP at 10 mg/kg, iv administered on day 12 as infusion for 5 mins; assay type: organism-based; details: in vivo
[18] = Toxicity in mouse allografted with mouse N202 tumor spheroids expressing H2B-GFP assessed as effect on tumor surrounding vasculature in the dorsal skin fold at 5 mg/kg, iv administered on day 12 as infusion for 2 mins measured on day 15; assay type: organism-based; details: in vivo
[19] = Toxicity in mouse allografted with mouse N202 tumor spheroids expressing H2B-GFP assessed as effect on tumor surrounding vasculature in the dorsal skin fold at 10 mg/kg, iv administered on day 13 as infusion for 5 mins measured on day 15; assay type: organism-based; details: in vivo
Rattus norvegicus [20] = test: Effect on blood flow in rat brain at 15 mg/kg, ip measured after 1 hr by [125I]iodoantipyrine based method relative to vehicle control; assay type: ADME, organism-based; details: in vivo
Rattus norvegicus [21] = test: Effect on blood flow in rat kidney at 15 mg/kg, ip measured after 1 hr by [125I]iodoantipyrine based method relative to vehicle control; assay type: ADME, organism-based; details: in vivo
Rattus norvegicus [22] = test: Reduction in blood flow in rat skin at 15 mg/kg, ip measured after 24 hrs by [125I]iodoantipyrine based method relative to vehicle control; assay type: ADME, organism-based; details: in vivo
Rattus norvegicus [23] = test: Reduction in blood flow in rat brain at 15 mg/kg, ip measured after 24 hrs by [125I]iodoantipyrine based method relative to vehicle control; assay type: ADME, organism-based; details: in vivo
Rattus norvegicus [24] = test: Reduction in blood flow in rat heart at 15 mg/kg, ip measured after 24 hrs by [125I]iodoantipyrine based method relative to vehicle control; assay type: ADME, organism-based; details: in vivo
Rattus norvegicus [25] = test: Reduction in blood flow in rat spleen at 15 mg/kg, ip measured after 24 hrs by [125I]iodoantipyrine based method relative to vehicle control; assay type: ADME, organism-based; details: in vivo
P22 = test: Induction of necrosis in rat P22 cells implanted in rat compound administered intraperitoneally measured after 24 hrs post dose; assay type: functional, cell-based
[26] = Antimitotic activity in human MCF7 cells assessed as tubulin foci formation at mitotic block IC50 measured after 20 hrs by immunofluorescence analysis relative to control; assay type: functional
MCF7 = test: Antimitotic activity in human MCF7 cells assessed as decrease in microtubule polymer formation measured after 20 hrs by immunofluorescence analysis relative to control; assay type: functional, cell-based
Tubulin (Homo sapiens) [27] = molecular target: T1, Tubulin (Homo sapiens); test: Induction of microtubule instability in human MCF7 cells assessed as mean growth rate at IC25 for mitotic block measured after 20 hrs by immunofluorescence analysis; assay type: cell-based
Tubulin (Homo sapiens) [28] = molecular target: T1, Tubulin (Homo sapiens); test: Induction of microtubule instability in human MCF7 cells assessed as time spent for growth at IC25 for mitotic block measured after 20 hrs by immunofluorescence analysis; assay type: cell-based
Tubulin (Homo sapiens) [29] = molecular target: T1, Tubulin (Homo sapiens); test: Induction of microtubule instability in human MCF7 cells assessed as time spent for shortening at IC25 for mitotic block measured after 20 hrs by immunofluorescence analysis; assay type: cell-based
Tubulin (Homo sapiens) [30] = molecular target: T1, Tubulin (Homo sapiens); test: Induction of microtubule instability in human MCF7 cells assessed as rescue frequency at IC25 for mitotic block measured after 20 hrs by immunofluorescence analysis; assay type: cell-based
Tubulin (Homo sapiens) [31] = molecular target: T1, Tubulin (Homo sapiens); test: Induction of microtubule instability in human MCF7 cells assessed as mean shortening rate at IC50 for mitotic block measured after 20 hrs by immunofluorescence analysis; assay type: cell-based
Tubulin (Homo sapiens) [32] = molecular target: T1, Tubulin (Homo sapiens); test: Induction of microtubule instability in human MCF7 cells assessed as time spent for shortening at IC50 for mitotic block measured after 20 hrs by immunofluorescence analysis; assay type: cell-based
Tubulin (Homo sapiens) [33] = molecular target: T1, Tubulin (Homo sapiens); test: Induction of microtubule instability in human MCF7 cells assessed as time spent for attenuation at IC50 for mitotic block measured after 20 hrs by immunofluorescence analysis; assay type: cell-based
[34] = molecular target: RAF proto-oncogene serine/threonine-protein kinase (Homo sapiens) (UniProt P04049); details: 10 uM
Chain of RAF proto-oncogene serine/threonine-protein kinase (Homo sapiens) (P04049 whole entry): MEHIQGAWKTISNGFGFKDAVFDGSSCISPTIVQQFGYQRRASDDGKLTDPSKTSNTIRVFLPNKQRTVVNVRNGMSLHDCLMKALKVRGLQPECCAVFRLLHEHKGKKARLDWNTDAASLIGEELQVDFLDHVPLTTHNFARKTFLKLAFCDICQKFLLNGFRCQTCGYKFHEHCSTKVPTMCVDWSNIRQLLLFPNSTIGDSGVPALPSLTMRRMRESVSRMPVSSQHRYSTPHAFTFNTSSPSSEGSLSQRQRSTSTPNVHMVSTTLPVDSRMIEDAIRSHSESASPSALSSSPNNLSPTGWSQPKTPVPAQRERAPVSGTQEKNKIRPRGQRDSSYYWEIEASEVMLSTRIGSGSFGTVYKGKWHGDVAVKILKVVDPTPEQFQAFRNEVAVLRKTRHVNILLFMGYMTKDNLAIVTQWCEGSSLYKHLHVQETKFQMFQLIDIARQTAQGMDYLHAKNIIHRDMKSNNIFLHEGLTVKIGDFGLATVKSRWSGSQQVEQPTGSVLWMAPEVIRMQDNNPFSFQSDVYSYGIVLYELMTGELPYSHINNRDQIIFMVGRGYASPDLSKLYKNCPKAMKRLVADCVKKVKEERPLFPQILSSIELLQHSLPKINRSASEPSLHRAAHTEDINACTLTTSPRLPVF
Description: Inhibition of human c-RAF at 10 uM in presence of ATP

[35] = molecular target: Mitogen-activated protein kinase 10 (Rattus norvegicus) (UniProt P49187); details: 10 uM
Chain of Mitogen-activated protein kinase 10 (Rattus norvegicus) (P49187 whole entry): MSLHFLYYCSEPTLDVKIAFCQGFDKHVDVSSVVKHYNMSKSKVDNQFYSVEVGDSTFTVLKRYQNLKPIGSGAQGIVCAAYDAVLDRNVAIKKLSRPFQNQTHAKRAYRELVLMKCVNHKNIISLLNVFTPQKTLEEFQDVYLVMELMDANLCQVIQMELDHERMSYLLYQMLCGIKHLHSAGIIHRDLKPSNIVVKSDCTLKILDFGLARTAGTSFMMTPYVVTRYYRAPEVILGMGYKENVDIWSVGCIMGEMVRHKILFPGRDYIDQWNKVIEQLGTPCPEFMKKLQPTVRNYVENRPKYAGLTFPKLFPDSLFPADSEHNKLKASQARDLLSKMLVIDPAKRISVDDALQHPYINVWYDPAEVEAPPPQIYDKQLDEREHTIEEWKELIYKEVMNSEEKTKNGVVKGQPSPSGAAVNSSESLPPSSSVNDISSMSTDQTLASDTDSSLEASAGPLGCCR
Description: Inhibition of rat JNK3 at 10 uM in presence of ATP

[36] = molecular target: Tyrosine-protein kinase Lyn (Mus musculus) (UniProt P25911); details: 10 uM
Chain of Tyrosine-protein kinase Lyn (Mus musculus) (P25911 whole entry): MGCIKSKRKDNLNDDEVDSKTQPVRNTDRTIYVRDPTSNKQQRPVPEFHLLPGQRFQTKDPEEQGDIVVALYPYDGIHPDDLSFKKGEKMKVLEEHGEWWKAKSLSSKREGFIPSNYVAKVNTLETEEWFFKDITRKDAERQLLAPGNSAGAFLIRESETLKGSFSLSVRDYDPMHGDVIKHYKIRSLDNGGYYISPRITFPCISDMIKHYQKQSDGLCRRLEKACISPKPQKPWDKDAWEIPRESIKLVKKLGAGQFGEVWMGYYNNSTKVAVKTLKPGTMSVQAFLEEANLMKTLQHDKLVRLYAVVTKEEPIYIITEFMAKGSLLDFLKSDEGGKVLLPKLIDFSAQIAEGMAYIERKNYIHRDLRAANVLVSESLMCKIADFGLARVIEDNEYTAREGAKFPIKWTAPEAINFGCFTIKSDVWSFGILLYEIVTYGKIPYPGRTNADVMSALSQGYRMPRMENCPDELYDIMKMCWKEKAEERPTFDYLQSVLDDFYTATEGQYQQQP
Description: Inhibition of mouse Lyn at 10 uM in presence of ATP

## CC(C)(C)c1[nH]cnc1/C=c1\[nH]c(=O)/c(=C/c2ccccc2)[nH]c1=O [PLINABULIN]
[1]
  EC50: 9.8 to 48 nM
[2]
  EC50: 1 to 13.4 nM
HeLa
  Activity: Active
[3]
  Drug metabolism: Metabolite_Detected
[4]
  EC50: 13.8 nM
[5]
  EC50: > 20000 nM
[6]
  EC50: 9.2 nM
[7]
  EC50: 6.4 nM
[8]
  EC50: 8.17 nM
Tubulin (Homo sapiens) [9]
  Activity: Active
Tubulin (Homo sapiens) [10]
  Activity: Active
HUVEC [11]
  Activity: Active
HUVEC [12]
  Activity: Active
[13]
  inhibition in vivo at 7.5 mg/kg: 26 to 81%
[14]
  inhibition in vivo at 7.5 mg/kg: 92.5%
[15]
  MIC: > 32 µg/mL
Trichophyton rubrum
  MFC: 0.125 µg/mL (≈ 0.372 µM)
[16]
  MIC: 2 µg/mL (≈ 5.95 µM)
Mus musculus
  inhibition: Active
[17]
  Activity: Non-Toxic
[18]
  Activity: Non-Toxic
[19]
  Activity: Non-Toxic
Rattus norvegicus [20]
  Activity: Non-Toxic
Rattus norvegicus [21]
  Activity: Non-Toxic
Rattus norvegicus [22]
  Activity: Toxic
Rattus norvegicus [23]
  Activity: Toxic
Rattus norvegicus [24]
  Activity: Toxic
Rattus norvegicus [25]
  Activity: Toxic
P22
  Activity: Dose-dependent effect
[26]
  Activity: 73%
MCF7
  Activity: Dose-dependent effect
Tubulin (Homo sapiens) [27]
  Activity: 11.9 um/min
Tubulin (Homo sapiens) [28]
  Activity: 29.7%
  TIME: 0.00517 h
Tubulin (Homo sapiens) [29]
  Activity: 20.5%
  TIME: 0.00333 h
Tubulin (Homo sapiens) [30]
  Activity: 2.79 min⁻¹
Tubulin (Homo sapiens) [31]
  Activity: 34.1 um/min
Tubulin (Homo sapiens) [32]
  Activity: 20.9%
  TIME: 0.00367 h
Tubulin (Homo sapiens) [33]
  TIME: 0.0102 h
[34]
  inhibition: > 50%
[35]
  inhibition: > 50%
[36]
  inhibition: > 50%
